ChEMBL document CHEMBL1142186, “Multistep resistance selection and postantibiotic-effect studies of the antipneumococcal activity of LBM415 compared to other agents” (2007)
≈ marks a conversion by molar mass, not a printed value.

Key:
Type in all cases: functional
Streptococcus pneumoniae [1] = assay: Antibacterial activity against Streptococcus pneumoniae 3665 by macrodilution method
Streptococcus pneumoniae [2] = assay: Antibacterial activity against moxifloxacin resistance selected Streptococcus pneumoniae 3676 with GyrA E85G, GyrB S478I and ParC S79Y mutation after 10 antibiotic-free subcultures by macrodilution method
Streptococcus pneumoniae [3] = assay: Antibacterial activity against azithromycin resistance selected Streptococcus pneumoniae 3243 with L22 insertion 93SFRPRA94 mutation after 10 antibiotic-free subcultures by macrodilution method
Streptococcus pneumoniae [4] = assay: Antibacterial activity against clarithromycin resistance selected Streptococcus pneumoniae 3676 after 10 antibiotic-free subcultures by macrodilution method
Streptococcus pneumoniae [5] = assay: Antibacterial activity against […] resistance selected Streptococcus pneumoniae 37 with PDF G69R, P76R mutation after 50 passages by macrodilution method
Streptococcus pneumoniae [6] = assay: Antibacterial activity against clarithromycin resistance selected Streptococcus pneumoniae 3009 after 10 antibiotic-free subcultures by macrodilution method
Streptococcus pneumoniae [7] = assay: Antibacterial activity against […] resistance selected Streptococcus pneumoniae 2527 after 27 passages by macrodilution method
Streptococcus pneumoniae [8] = assay: Antibacterial activity against moxifloxacin resistance selected Streptococcus pneumoniae 3009 with GyrA S81F and ParC D83N mutation after 10 antibiotic-free subcultures by macrodilution method
Streptococcus pneumoniae [9] = assay: Antibacterial activity against gatifloxacin resistance selected Streptococcus pneumoniae 3009 after 10 antibiotic-free subcultures by macrodilution method
Streptococcus pneumoniae [10] = assay: Antibacterial activity against moxifloxacin resistance selected Streptococcus pneumoniae 24 with GyrA S81Y, GyrB P413S and ParC S79F mutation after 10 antibiotic-free subcultures by macrodilution method
Streptococcus pneumoniae [11] = assay: Antibacterial activity against Streptococcus pneumoniae 37 by macrodilution method
Streptococcus pneumoniae [12] = assay: Antibacterial activity against […] resistance selected Streptococcus pneumoniae 3009 with PDF G69V mutation after 10 antibiotic-free subcultures by macrodilution method
Streptococcus pneumoniae [13] = assay: Antibacterial activity against […] resistance selected Streptococcus pneumoniae 1077 with PDF D176N mutation after 24 passages by macrodilution method
Streptococcus pneumoniae [14] = assay: Antibacterial activity against […] resistance selected Streptococcus pneumoniae 37 with PDF G69R, P76R mutation after 10 antibiotic-free subcultures by macrodilution method
Streptococcus pneumoniae [15] = assay: Antibacterial activity against Streptococcus pneumoniae 19 by macrodilution method
Streptococcus pneumoniae [16] = assay: Antibacterial activity against azithromycin resistance selected Streptococcus pneumoniae 2527 after 10 antibiotic-free subcultures by macrodilution method
Streptococcus pneumoniae [17] = assay: Antibacterial activity against moxifloxacin resistance selected Streptococcus pneumoniae 3665 with GyrA S81Y mutation after 10 antibiotic-free subcultures by macrodilution method
Streptococcus pneumoniae [18] = assay: Antibacterial activity against […] resistance selected Streptococcus pneumoniae 3243 with PDF G69C, Q172H mutation after 10 antibiotic-free subcultures by macrodilution method
Streptococcus pneumoniae [19] = assay: Antibacterial activity against Streptococcus pneumoniae 2527 by macrodilution method
Streptococcus pneumoniae [20] = assay: Antibacterial activity against moxifloxacin resistance selected Streptococcus pneumoniae 3243 after 10 antibiotic-free subcultures by macrodilution method
Streptococcus pneumoniae [21] = assay: Antibacterial activity against Streptococcus pneumoniae assessed as period of suppression of bacterial growth
Streptococcus pneumoniae [22] = assay: Antibacterial activity against Streptococcus pneumoniae 3243 by macrodilution method
Streptococcus pneumoniae [23] = assay: Antibacterial activity against […] resistance selected Streptococcus pneumoniae 2527 after 10 antibiotic-free subcultures by macrodilution method
Streptococcus pneumoniae [24] = assay: Antibacterial activity against […] resistance selected Streptococcus pneumoniae 1077 with PDF D176N mutation after 10 antibiotic-free subcultures by macrodilution method
Streptococcus pneumoniae [25] = assay: Antibacterial activity against […] resistance selected Streptococcus pneumoniae 3665 with after 10 antibiotic-free subcultures by macrodilution method
Streptococcus pneumoniae [26] = assay: Antibacterial activity against […] resistance selected Streptococcus pneumoniae 3676 with PDF R135C mutation after 20 passages by macrodilution method
Streptococcus pneumoniae [27] = assay: Antibacterial activity against gatifloxacin resistance selected Streptococcus pneumoniae 37 with GyrA S81Y, GyrB E474K and ParC S79Y mutation after 10 antibiotic-free subcultures by macrodilution method
Streptococcus pneumoniae [28] = assay: Antibacterial activity against […] resistance selected Streptococcus pneumoniae 19 with after 10 antibiotic-free subcultures by macrodilution method
Streptococcus pneumoniae [29] = assay: Antibacterial activity against moxifloxacin resistance selected Streptococcus pneumoniae 19 with GyrA S81F mutation after 10 antibiotic-free subcultures by macrodilution method
Streptococcus pneumoniae [30] = assay: Antibacterial activity against azithromycin resistance selected Streptococcus pneumoniae 1077 with 23S rRNA A2058G mutation after 10 antibiotic-free subcultures by macrodilution method
Streptococcus pneumoniae [31] = assay: Antibacterial activity against levofloxacin resistance selected Streptococcus pneumoniae 3009 with GyrA S81Y and ParC S79Y mutation after 10 antibiotic-free subcultures by macrodilution method
Streptococcus pneumoniae [32] = assay: Antibacterial activity against Streptococcus pneumoniae 24 by macrodilution method
Streptococcus pneumoniae [33] = assay: Antibacterial activity against moxifloxacin resistance selected Streptococcus pneumoniae 1076 with ParC S79Y mutation after 10 antibiotic-free subcultures by macrodilution method
Streptococcus pneumoniae [34] = assay: Antibacterial activity against gatifloxacin resistance selected Streptococcus pneumoniae 1076 with ParC S79Y mutation after 10 antibiotic-free subcultures by macrodilution method
Streptococcus pneumoniae [35] = assay: Antibacterial activity against […] resistance selected Streptococcus pneumoniae 1076 with PDF D176N mutation after 39 passages by macrodilution method
Streptococcus pneumoniae [36] = assay: Antibacterial activity against Streptococcus pneumoniae 3676 by macrodilution method
Streptococcus pneumoniae [37] = assay: Antibacterial activity against […] resistance selected Streptococcus pneumoniae 3665 with after 27 passages by macrodilution method
Streptococcus pneumoniae [38] = assay: Antibacterial activity against […] resistance selected Streptococcus pneumoniae 3009 with PDF G69V mutation after 14 passages by macrodilution method
Streptococcus pneumoniae [39] = assay: Antibacterial activity against clarithromycin resistance selected Streptococcus pneumoniae 3243 with 23S rRNA A2059T mutation after 10 antibiotic-free subcultures by macrodilution method
Streptococcus pneumoniae [40] = assay: Antibacterial activity against […] resistance selected Streptococcus pneumoniae 3413 after 14 passages by macrodilution method
Streptococcus pneumoniae [41] = assay: Antibacterial activity against […] resistance selected Streptococcus pneumoniae 24 with PDF G139F mutation after 27 passages by macrodilution method
Streptococcus pneumoniae [42] = assay: Antibacterial activity against levofloxacin resistance selected Streptococcus pneumoniae 19 with GyrA S81Y and ParC D83Y mutation after 10 antibiotic-free subcultures by macrodilution method
Streptococcus pneumoniae [43] = assay: Antibacterial activity against […] resistance selected Streptococcus pneumoniae 3243 with PDF G69C, Q172H mutation after 20 passages by macrodilution method
Streptococcus pneumoniae [44] = assay: Antibacterial activity against clarithromycin resistance selected Streptococcus pneumoniae 3665 after 10 antibiotic-free subcultures by macrodilution method
Streptococcus pneumoniae [45] = assay: Antibacterial activity against Streptococcus pneumoniae 1077 by macrodilution method
Streptococcus pneumoniae [46] = assay: Antibacterial activity against […] resistance selected Streptococcus pneumoniae 19 with after 14 passages by macrodilution method
Streptococcus pneumoniae [47] = assay: Antibacterial activity against […] resistance selected Streptococcus pneumoniae 1076 with PDF D176N mutation after 10 antibiotic-free subcultures by macrodilution method
Streptococcus pneumoniae [48] = assay: Antibacterial activity against Streptococcus pneumoniae 1076 by macrodilution method
Streptococcus pneumoniae [49] = assay: Antibacterial activity against […] resistance selected Streptococcus pneumoniae 3676 with PDF R135C mutation after 10 antibiotic-free subcultures by macrodilution method
Streptococcus pneumoniae [50] = assay: Antibacterial activity against […] resistance selected Streptococcus pneumoniae 24 with PDF G139F mutation after 10 antibiotic-free subcultures by macrodilution method
Streptococcus pneumoniae [51] = assay: Antibacterial activity against […] resistance selected Streptococcus pneumoniae 3413 after 10 antibiotic-free subcultures by macrodilution method
Streptococcus pneumoniae [52] = assay: Antibacterial activity against Streptococcus pneumoniae 3413 by macrodilution method
Streptococcus pneumoniae [53] = assay: Antibacterial activity against Streptococcus pneumoniae 3009 by macrodilution method

SMILES: CCCC[C@H](CN(O)C=O)C(=O)N1CCC[C@H]1C(=O)Nc1ccc(F)c[n+]1[O-]
- MIC (Streptococcus pneumoniae [1]): 0.25 µg/mL (≈ 0.631 µM)
- MIC (Streptococcus pneumoniae [2]): 0.125 µg/mL (≈ 0.315 µM)
- MIC (Streptococcus pneumoniae [3]): 0.5 µg/mL (≈ 1.26 µM)
- MIC (Streptococcus pneumoniae [4]): 0.125 µg/mL (≈ 0.315 µM)
- MIC (Streptococcus pneumoniae [5]): 16 µg/mL (≈ 40.4 µM)
- MIC (Streptococcus pneumoniae [6]): 1 µg/mL (≈ 2.52 µM)
- MIC (Streptococcus pneumoniae [7]): 4 µg/mL (≈ 10.1 µM)
- MIC (Streptococcus pneumoniae [8]): 0.5 µg/mL (≈ 1.26 µM)
- MIC (Streptococcus pneumoniae [9]): 2 µg/mL (≈ 5.05 µM)
- MIC (Streptococcus pneumoniae [10]): 0.125 µg/mL (≈ 0.315 µM)
- MIC (Streptococcus pneumoniae [11]): 1 µg/mL (≈ 2.52 µM)
- MIC (Streptococcus pneumoniae [12]): > 16 µg/mL
- MIC (Streptococcus pneumoniae [13]): 8 µg/mL (≈ 20.2 µM)
- MIC (Streptococcus pneumoniae [14]): 2 µg/mL (≈ 5.05 µM)
- MIC (Streptococcus pneumoniae [15]): 0.25 µg/mL (≈ 0.631 µM)
- MIC (Streptococcus pneumoniae [16]): 0.5 µg/mL (≈ 1.26 µM)
- MIC (Streptococcus pneumoniae [17]): 0.5 µg/mL (≈ 1.26 µM)
- MIC (Streptococcus pneumoniae [18]): 1 µg/mL (≈ 2.52 µM)
- MIC (Streptococcus pneumoniae [19]): 0.25 µg/mL (≈ 0.631 µM)
- MIC (Streptococcus pneumoniae [20]): 0.03 µg/mL (≈ 0.0757 µM)
- Post Antibiotic Effe (Streptococcus pneumoniae [21]): 1 h
- MIC (Streptococcus pneumoniae [22]): 0.5 µg/mL (≈ 1.26 µM)
- MIC (Streptococcus pneumoniae [23]): 0.5 µg/mL (≈ 1.26 µM)
- MIC (Streptococcus pneumoniae [24]): 4 µg/mL (≈ 10.1 µM)
- MIC (Streptococcus pneumoniae [25]): 1 µg/mL (≈ 2.52 µM)
- MIC (Streptococcus pneumoniae [26]): 2 µg/mL (≈ 5.05 µM)
- MIC (Streptococcus pneumoniae [27]): 2 µg/mL (≈ 5.05 µM)
- MIC (Streptococcus pneumoniae [28]): 2 µg/mL (≈ 5.05 µM)
- MIC (Streptococcus pneumoniae [29]): 0.5 µg/mL (≈ 1.26 µM)
- MIC (Streptococcus pneumoniae [30]): 0.25 µg/mL (≈ 0.631 µM)
- MIC (Streptococcus pneumoniae [31]): 0.5 µg/mL (≈ 1.26 µM)
- MIC (Streptococcus pneumoniae [32]): 0.5 µg/mL (≈ 1.26 µM)
- MIC (Streptococcus pneumoniae [33]): 0.125 µg/mL (≈ 0.315 µM)
- MIC (Streptococcus pneumoniae [34]): 0.25 µg/mL (≈ 0.631 µM)
- MIC (Streptococcus pneumoniae [35]): 8 µg/mL (≈ 20.2 µM)
- MIC (Streptococcus pneumoniae [36]): 0.125 µg/mL (≈ 0.315 µM)
- MIC (Streptococcus pneumoniae [37]): 4 µg/mL (≈ 10.1 µM)
- MIC (Streptococcus pneumoniae [38]): > 16 µg/mL
- MIC (Streptococcus pneumoniae [39]): 0.5 µg/mL (≈ 1.26 µM)
- MIC (Streptococcus pneumoniae [40]): 2 µg/mL (≈ 5.05 µM)
- MIC (Streptococcus pneumoniae [41]): 4 µg/mL (≈ 10.1 µM)
- MIC (Streptococcus pneumoniae [42]): 1 µg/mL (≈ 2.52 µM)
- MIC (Streptococcus pneumoniae [43]): 4 µg/mL (≈ 10.1 µM)
- MIC (Streptococcus pneumoniae [44]): 0.25 µg/mL (≈ 0.631 µM)
- MIC (Streptococcus pneumoniae [45]): 0.5 µg/mL (≈ 1.26 µM)
- MIC (Streptococcus pneumoniae [46]): 4 µg/mL (≈ 10.1 µM)
- MIC (Streptococcus pneumoniae [47]): 2 µg/mL (≈ 5.05 µM)
- MIC (Streptococcus pneumoniae [48]): 0.25 µg/mL (≈ 0.631 µM)
- MIC (Streptococcus pneumoniae [49]): 2 µg/mL (≈ 5.05 µM)
- MIC (Streptococcus pneumoniae [50]): 2 µg/mL (≈ 5.05 µM)
- MIC (Streptococcus pneumoniae [51]): 1 µg/mL (≈ 2.52 µM)
- MIC (Streptococcus pneumoniae [52]): 0.25 µg/mL (≈ 0.631 µM)
- MIC (Streptococcus pneumoniae [53]): 1 µg/mL (≈ 2.52 µM)
